The test system of the assay is T4-2 cells. Description: Reversion assay in 3D rBM cultures with Northern blot of AZU-1 message. Particulars: 3D rBM culture; AIIB2 100 μg/ml ascites protein, Tyrphostin AG 1478 100 nM. The format is cell-based, human. The text has this: To test this, total RNA was extracted from 3D rBM cultures of S1 cells and T4-2 cells treated with or without inhibitors of either β1 integrin (mAb AIIB2) or EGFR (Tyrphostin). Results are seen in FIG. 18. […] By virtue of its connections with β1 integrin and EGFR, AZU-1 may provide essential cellular information that dictates cellular structure and phenotype.
Total RNA was extracted from cells cultured as monolayers or in 3D rBM or cells from normal tissues or in situ carcinoma with TRIzol reagent (Life Technologies, Inc. Grand Island, N.Y.). For Northern blots, total RNA (20 μg/lane) was resolved on denaturing agarose gels and transferred to Hybond-N^+ membranes (Amersham). Resulting blots were hybridized with ^32P-labeled cDNA probes and analyzed by autoradiography. A GAPDH probe was used to normalize variations in loading.
The β1-integrin function-blocking mAb AIIB2 (C. Damsky, UCSF) was introduced into the cell-embedded substratum at a concentration of 100 μg/ml ascites protein (which corresponds to 4-10 μg/ml purified rat IgG1) at the time of Matrigel gelation. Tyrphostin AG 1478 (Calbiochem) dissolved in dimethyl sulfoxide was added to the medium at a concentration of 100 nM on alternate days. Control cultures were treated with […] and vehicle only for AIIB2 antibody and inhibitor experiments, respectively.

In the case of `COc1cc2ncnc(Nc3cccc(Cl)c3)c2cc1OC` [Tyrphostin, Tyrphostin AG 1478], the “AZU-1 message levels in treated T4-2 cells (Northern blot)” value is “restored to S1-like levels” and the “phenotype of treated T4-2 cells in 3D rBM” value is “phenotypically reverted”.

The values are drawn from patent US6753154B1, “Human AZU-1 gene, variants thereof and expressed gene products” (The Regents of the University of California, priority 1998, dated 2004).
